Data from US20090269362A1, “Method for Controlling Immunodominance” (priority 2005, published 2009).

Columns and labels:
CD4 T cells [1] = assay: IL-2 ELISPOT of draining lymph node cells after immunization with MalE:insert protein; assay type: in vivo, mouse; settings: mice immunized with MalE protein
sI-A^d [2] = settings: pH 5.3, 37° C., FITC peptide from sI-A^d
sI-A^d [3] = assay: Peptide competition with FITC-HA[126-138] for binding to soluble I-A^d; design: species or system mouse; settings: 1 μM FITC-HA[126-138], 20 nM soluble I-A^d
Procedure: B. The percentage of inhibition of binding of 1 μM N-terminal FITC-HA[126-138] to sI-A^d by the unlabeled competitor peptide was plotted against the concentration of unlabeled inhibitory peptide. Data is represented as a Hill Plot (Hill, J Physiol 40, iv-vii, 1910), and is the average of 2 independent experiments
Soluble I-A^d (20 nM) and 1 μM FITC-HA[126-138] were used for competition assays, which is in the titratable range of peptide and class II molecules. Unlabeled competitor peptides at a final concentrations ranging between 0-500 μM were mixed, and after 16-20 h of incubation at 37° C., the sI-A^d-FITC-HA[126-138] complex was separated from free peptide and quantified as described above. Inhibition by competitor peptides was calculated using the Hill equation ((Hill, J Physiol 40, iv-vii, 1910), with the IC50 value the concentration of unlabeled competitor peptide required to achieve 50% inhibition of the labeled peptide binding to class II molecules.

[4] = system: peptide specific T cell hybridomas; assay: T cell hybridoma assay (IL-2 production, CTLL/MTT); assay type: cell-based, mouse
lymph node cells = assay: IL-2 ELISPOT after immunization with peptide (cross reactivity of WT and variant); assay type: in vivo, mouse; settings: mice immunized with WT or variant peptide
CD4 T cells [5] = assay: IL-2 ELISPOT after immunization with OVA protein; assay type: in vivo, mouse; settings: mice immunized with OVA protein
Procedure: Groups of 2 BALB/c mice were immunized in the footpad with (A) 200 μg/mL OVA protein, (B) 200 μg/mL of the indicated MalE protein, or (D and E) 5 nmol of the indicated peptide emulsified in 50 μL PBS:CFA. The number of IL-2 producing cells at day 10 was determined by 16 h in vitro stimulation of CD4 purified cells with syngeneic spleen cells and (A) 200 μg/mL protein or 12.5 μM peptide, (B) 200 μg/mL protein or 5 μM peptide, or (D and E) the indicated amount of peptide and quantified using IL-2 ELISPOT assays with background subtracted. (A and D) Data represents the mean counts of two separate cell dilutions ([…] and 1.25×10^5) of triplicate wells normalized as indicated. […] Data are representative of at least 2 independent experiments.
To provide another example of a cryptic epitope that can gain immunodominance by simply changing its kinetic stability with I-A^d, one of the peptide registers contained within the prototypic I-A^d-restricted peptide OVA [323-339] (Jenkins et al., Annu Rev Immunol 19, 23-45, 2001; Sette et al., J Immunol 142, 35-40, 1988) was studied. Several studies (McFarland et al., Biochemistry 38, 16663-16670, 1999; Robertson et al., J Immunol 164, 4706-4712, 2000) have shown that this long peptide contains several alternative registers, including the most amino terminal segment that was co-crystallized with I-A^d (Scott et al., Immunity 1, 73-83, 1998). […]

Chain of sI-A^d (P04228 24-111 limits assumed): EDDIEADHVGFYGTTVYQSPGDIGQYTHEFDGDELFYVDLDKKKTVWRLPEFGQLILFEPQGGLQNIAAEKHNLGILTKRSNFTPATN
Chain of sI-A^d (P01921 28-122 limits assumed, further chain): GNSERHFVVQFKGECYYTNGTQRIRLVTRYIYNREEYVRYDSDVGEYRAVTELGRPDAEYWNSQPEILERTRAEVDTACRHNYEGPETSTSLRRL

Substance	immunogenicity of peptide within MalE (in words) (CD4 T cells [1])	t1/2 (half-life, kinetic stability) of peptide with I-A^d (sI-A^d [2])	competition with HA [126-138] for binding to I-A^d (in words) (sI-A^d [3])	reactivity of specific T cell hybridoma to peptide inserted into MalE (in words) ([4]; MalE:insert protein, BALB/c spleen as APCs)	cross reactivity between WT and variant peptide after peptide immunization (in words) (lymph node cells)	stimulation of specific T cell hybridoma by soluble peptide (in words) ([4]; peptide presented by I-A^d expressing cells)	percent of T cells raised against OVA that recognize the peptide (CD4 T cells [5])
HEL R14Q, G22S: HEL [11-25] variant with changes at P1 and P9 (AMKQHGLDNYRSYSL; UniProt P00698 29-43, looked up, variant R14Q G22S)	remained non-immunogenic	11 h					
AMKRHGLDNYRGYSL [HEL [11-25]]	failure in immunogenicity	6 h	competed well	gained reactivity			
HEL [20-35]: cryptic epitope of hen-egg lysozyme (YRGYSLGNWVCAAKFE; UniProt P00698 38-53, looked up, fragment)		4 h	competed poorly				
A332I, I334V: OVA [327-339] variant with substitutions at P4 and P6 (AVHAAHIEVNEAG; UniProt P01012 327-339, looked up, variant A332I I334V)	immunodominant peptide	greater than 80 h			cross-reacted back onto the WT OVA peptide	recognized by the 3DO11.10 T cell hybridoma	
OVA [273-288]: immunodominant I-Ad restricted epitope from chicken ovalbumin (VMEERKIKVYLPRMKM; UniProt P01012 273-288, looked up, fragment)		160 h					
OVA [327-339]: carboxyterminal register of OVA [323-339] recognized by the 3DO11.10 T cell (AVHAAHAEINEAG; UniProt P01012 327-339, looked up, fragment)		0.3 h					Less than 1%
R14Q, N19A, G22S: HEL [11-25] variant with changes at P1, P6, and P9 (AMKQHGLDAYRSYSL; UniProt P00698 29-43, looked up, variant R14Q N19A G22S)	significant gain in immunogenicity	35 h			a significant portion of the T cells elicited were non-reactive with the WT HEL peptide		
